Measurements: patent US20240197236A1, “ELECTRO-ANATOMIC CARDIAC REPOLARIZATION MAPPING” (University Health Network, priority 2022, published 2024)

Test system: rabbit heart
Test: Rabbit heart Langendorff, simultaneous optical mapping and epicardial electrode-grid mapping of repolarization duration
Conditions: after 20 uM addition of pinacidil to the perfusate
Experimental: A study was performed to adapt a rabbit heart Langendorff optical mapping model^42 to add the recording of electrical EGMs to a commercially-available electrode array lab (Advisor […] catheter, Abbott Laboratories), after its use in the clinical laboratory for animal use. This involved using a UHN research mapping system in which unipolar EGMs from a 16-electrode grid were used to record cardiac signals with a proprietary mapping system (described previously as UHN Cartesian Mapping System^43) at a sampling rate of 1 kHz. This electrode array was chosen as spacing between the splines allowed recording of the fluorescence from the voltage-sensitive dye RH237. Fluorescence was recorded with a high-speed CMOS camera (Ultima-L, SciMedia, Costa Mesa, CA) at a rate of 500 frames/s. […] A derivative of the vectorcardiogram was obtained by projecting the repolarization loop along its maximum axis where the projection may be called a loop optimized rEGM (i.e., which is a type of repolarization-optimized EGM that in this case is determined using the loop method described with respect to FIG. 5C). A measurement of repolarization duration, called APD^v, was measured from the onset of QRS to baseline return of the loop rEGM. It was hypothesized that rEGM provides vector-derived integrated action potential duration (APD^v) that correlates with local repolarization assessed by optical mapping. […]

Question: Which “APD (optical APD90 from fluorescence)” value (baseline APD90 151 ms) does the source give for `CC(N/C(=N\C#N)Nc1ccncc1)C(C)(C)C` (centres unmarked) [Pinacidil, pinacidil] here?
Answer: 89 ms

Question: What about the “ARI (repolarization duration from loop rEGM)” value (baseline APD^v average 142 ms) of the same compound?
Answer: 68 ms
